# Entries after “also recorded” stand apart in the source; their conditions may differ. Read-outs that look alike come from different tables or passages of the source. No end group written: not given here.
# T1: peptide Gly-Pro-Leu-Ala-Leu-Leu-Ala-Gln (GPLALLAQ)
# T1 sequence: GPLALLAQ
# T2: hyaluronic acid-peptide-HEMA conjugate (hyaluronic acid-Leu-Leu-Leu-Ala-Ala-Gly-HEMA)
# T2 chain: LLLAAG
# T3: peptide Gly-Pro-Leu-Ala-Leu-Leu-Ala-Gln (GPLALLAQ)
# T3 chain: GPLALLAQ
# T4: peptide Leu-Leu-Leu-Ala-Ala-Gly (LLLAAG)
# T4 chain: LLLAAG
# Key:
# [1] = test system: T1, peptide Gly-Pro-Leu-Ala-Leu-Leu-Ala-Gln (GPLALLAQ)
# [2] = test system: proteinases in contact lens rinsing liquid (tear fluid); assay: Incubation of hyaluronic acid-peptide-HEMA conjugate with lyophilized contact lens rinsing liquid, LC-MS of peptide-HEMA fragments; assay type: biochemical, human; settings: 35 hours at 35° C., rinsing liquid of five individuals (hard and soft lenses)
# Excerpt: (§1) To cope with this experimental difficulty, we decided to focus on the identification of Peptide-HEMA fragments that can be expected to be released from the hyaluronic acid-peptide-HEMA conjugate upon exposure to a suitable proteolytic activity. On the basis of peptide hydrolysis data gathered in Examples 2 and 5, peptide Leu-Leu-Leu-Ala-Ala-Gly (LLLAAG) was synthesized and used to prepare a hyaluronic acid-peptide-HEMA conjugate (Example 6).
# Rinsing liquid was collected from 5 individuals, two wearing hard lenses and three wearing soft lenses, at the end of the working day over multiple days. The lenses were collected using sterile nitrile gloves and rinsed with 200 μl MilliQ water on a flat glass microscope slide (Thermo Scientific) containing Grace Bio-labs Press-to-Seal silicone isolator, No PSA (Sigma Aldrich GBL664504-25EA). The rinse liquid was transferred to a Protein LoBind Tube 2.0 ml (Eppendorf) using Maxymum Recovery pipette tips (Axygen scientific). The rinse liquid was frozen at −80° C. as soon as possible. Rinsing fluid was lyophilized overnight when >1.5 ml rinsing liquid was collected for each individual.
# Hyaluronic acid-peptide-HEMA conjugates are too heterologous in mass to be directly detected by MS. […]
# The conjugate (Example 6) was dissolved in 50 mM ammonium acetate buffer at 0.2 mg/ml and analyzed by 25 μl injections on the LC-MS system. […]
# human elastase = assay: Incubation of hyaluronic acid-peptide-HEMA conjugate with human elastase preparation, LC-MS; assay type: biochemical; settings: 35° C., data not shown
# Experimental: as §1
# The conjugate (Example 6) was dissolved in 50 mM ammonium acetate buffer at 0.2 mg/ml and analyzed by 25 μl injections on the LC-MS system. The LC-MS system consisted of an Accela UHPLC (Thermo Fisher, Bremen, Germany) coupled to the LTQ-Orbitrap Fourier Transform Mass Spectrometer. The column used was a ZORBAX Rapid Resolution HT SB-C18, 2.1×50 mm, 1.8 μm (Agilent 827700-902). The autosampler was set to 35° C. for incubation of the samples and the column oven was set to 50° C. The analytes in the samples were separated using a flow of 0.8 ml min^−1 and the following gradient was used: […]
# 0-0.2 min 2.5% B, 0.2-2 min 2.5-30% B, 2-2.5 min 30-80% B, 2.5-3 min 80% B, 3.01-5 min 2.5% B, where buffer A is 0.1% Formic Acid in Water (Biosolve, LC-MS grade) and buffer B is 0.1% Formic Acid in Acetonitrile (Biosolve, LC-MS grade). The MS was scanning at 7500 resolution m/z 150-800. […]
# human leukocyte elastase = assay: Incubation of synthetic peptides with human leukocyte elastase, mass spectrometry; assay type: biochemical
# Experimental: (§2) Stock solutions (1 mg/ml in 5% acetonitrile) were prepared from the synthetic peptide substrates. The stock solutions are optionally 10× diluted with MilliQ water prior to incubation. Elastase (Sigma #: E7885), Tryptase (Sigma #: T7063), or tear fluid were added to the diluted substrate solutions and incubation was performed at 25° C. Aliquots of 20 μl were taken at several time points to monitor substrate degradation.
# (§3) The aliquots were 10× diluted in 50% acetonitrile, 0.1% formic acid prior to analysis. Mass Spectrometric (MS) analysis was performed by infusion in the LTQ-Orbitrap Fourier Transform Mass Spectrometer (Thermo Fisher, Bremen, Germany). Infusion was performed by mixing 10 μl min^−1 of sample in a 200 μl min^−1 flow of 50% acetonitrile, 0.1% formic acid. The MS analysis was performed in the Orbitrap scanning at 7500 resolution using 200-1600 m/z mass range. Proteolytic activity during the different incubations of the synthetic peptides substrates was studied by manual inspection of the MS data using the Qual browser in the XCalibur software (Thermo Fisher, Bremen, Germany).
# (§4) After its purification, the peptide was incubated with contact lens rinsing liquid (cf. Example 1) of a single individual and incubated over the weekend at 25° C. Then samples of the incubation liquid were subjected to mass spectrometry to confirm cleavage. […]
# [3] = test system: proteinases present in tear fluid (contact lens rinsing liquid); assay: Incubation of synthetic peptides with tear fluid / contact lens rinsing liquid, cleavage followed by mass spectrometry; assay type: biochemical, human; settings: for endoproteolytic cleavage after Arg or Val by tear fluid / proteolytic cleavage observed after incubation with tear fluid (rinsing fluid): 162 hours (FIG. 2) / 165 hours at 25 degrees C.
# Experimental: as §2, §3
# Contact lens wearing subjects were invited to participate at the end of their working day. Using sterilized gloves, lenses were removed and the inner surface of each lens was rinsed with 250 microliter of sterilized water. Then 100 microliter samples of the rinsing liquid were incubated overnight at 25 degrees C. with 100 μl of a 1.0 mg/ml BODIPY TR-X casein solution (EnzChek Protease Assay kit ‘Red fluorescence’; Molecular Probes, Eugene, Oreg., USA). Throughout the incubation the fluorescence of the samples was measured every minute (kinetic measurement) according to the EnzChek kit protocol (excitation=590±10 nm, emission=645±20 nm) using a Tecan Infinite M1000 microtiterplate reader (Männedorf, Switzerland).
# After its purification, the peptide was incubated with contact lens rinsing liquid (cf. Example 1) of a single individual and incubated over the weekend at 25° C. Then samples of the incubation liquid were subjected to mass spectrometry to confirm cleavage. […] An incubation of the peptide with human leukocyte elastase (Sigma Aldrich) yielded GPLALL and AQ as the major cleavage products. An incubation of the peptide with human lung tryptase (also from Sigma Aldrich) yielded GPLAL/LAQ as the major cleavage products (see FIG. 1). The latter observations indicate that a peptide incorporating aliphatic hydrophobic residues like Ala and Leu support cleavage by human, tryptase- and elastase-like enzymes.
# In this Example we test the cleavage activity of tear fluid on two, slightly different synthetic peptides. The first peptide comprises Arg as a charged, basic residue (Ala-Ala-Pro-Arg-Ala-Ala-Arg-Gln, AAPRAARQ (SEQ ID NO: 4)) in order to facilitate cleavage by trypsin-like endoproteases. The second peptide comprises the medium sized aliphatic hydrophobic residue Val instead of Arg (Ala-Ala-Pro-Val-Ala-Ala-Arg-Gln, AAPVAARQ (SEQ ID NO: 5)) in order to facilitate cleavage by elastase-like endoproteases. The experiment was executed essentially as described in Example 2, but in this case tear fluid of four different individuals was obtained and incubated for 165 hours at 25 degrees C. Samples of the incubation liquid were again subjected to mass spectrometry.
# human lung tryptase = assay: Incubation of synthetic peptide with human lung tryptase, mass spectrometry; assay type: biochemical; settings: 25° C., overnight (FIG. 1)
# Experimental: as §2, §3, §4
# [4] = molecular target: T2, hyaluronic acid-peptide-HEMA conjugate …
# [5] = molecular target: T3, peptide Gly-Pro-Leu-Ala-Leu-Leu-Ala-Gln …
# [6] = molecular target: T4, peptide Leu-Leu-Leu-Ala-Ala-Gly (LLLAAG)
molecule,measurement,setting,value
human lung tryptase,peptide cleavage products by mass spectrometry,[1],yielded GPLAL/LAQ as the major cleavage products
"hyaluronic acid-peptide-HEMA conjugate: conjugate of hyaluronic acid with NH2-Leu-Leu-Leu-Ala-Ala-Gly hexapeptide and HEMA (hydroxyethyl methacrylate) (LLLAAG; not fully specified (N-terminus, C-terminus); printed as Leu-Leu-Leu-Ala-Ala-Gly; also: conjugate with hyaluronic acid and HEMA, attachment not given here)",peptide-HEMA fragments formed upon incubation with concentrated (lyophilized) contact lens rinsing liquid,[2],formation of various peptide-HEMA fragments; also recorded: is able to cleave the peptide of the hyaluronic acid-peptide-HEMA conjugate; also recorded: LAAG-HEMA
same,peptide-HEMA fragments formed upon incubation with elastase,human elastase,formation of the expected AG-HEMA fragment
LLLAAG,conversion of intact peptide by elastase (digestion pattern),"human leukocyte elastase; overnight at room temperature, 50 mM ammonium acetate buffer",converted to fragment Leu-Leu-Leu-Ala (LLLA); also recorded: completely converted to LLLA
"GPLALLAQ (peptide sequence cleavable by proteinases present in tear fluid) [Gly-Pro-Leu-Ala-Leu-Leu-Ala-Gln, linker test peptide cleavable by tear fluid proteinases]",cleavage products identified after incubation with contact lens rinsing liquid (tear fluid),"[3]; rinsing liquid of a single individual, over the weekend at 25° C.","GPLAL and LAQ, GPL and ALLAQ and GPLA and LLAQ"
same,major cleavage products after incubation with human leukocyte elastase,"human leukocyte elastase; 25° C., 30 minutes (FIG. 1)",GPLALL and AQ
same,major cleavage products after incubation with human lung tryptase,human lung tryptase,GPLAL/LAQ
"AAPRAARQ (peptide sequence cleavable by proteinases present in tear fluid) [Ala-Ala-Pro-Arg-Ala-Ala-Arg-Gln, synthetic test peptide comprising Arg as a charged, basic residue]",endoproteolytic cleavage after Arg or Val by tear fluid,[3],Hydrolysis of peptide bonds involving Arg (R) is not observed
same,proteolytic cleavage observed after incubation with tear fluid (rinsing fluid),[3],only showing cleavage at the N-terminal Ala
"AAPVAARQ (peptide sequence cleavable by proteinases present in tear fluid) [Ala-Ala-Pro-Val-Ala-Ala-Arg-Gln, synthetic test peptide comprising Val instead of Arg]",endoproteolytic cleavage after Arg or Val by tear fluid,[3],Cleavage C-terminal of Val does not occur
same,proteolytic cleavage observed after incubation with tear fluid (rinsing fluid),[3],hydrolysis of the peptide bond between Pro and Val
human leukocyte elastase (protein) IVGGRRARPHAWPFMVSLQLRGGHFCGATLIAPNFVMSAAHCVANVNVRAVRVVLGAHNLSRREPTRQVFAVQRIFENGYDPVNLLNDIVILQLNGSATINANVQVAQLPAQGRRLGNGVQCLAMGWGLLGRNRGIASVLQELNVTVVTSLCRRSNVCTLVRGRQAGVCFGDSGSPLVCNGLIHGIASFVRGGCASGLYPDAFAPVAQFVNWIDSIIQ,peptide-HEMA fragments by LC-MS,[4],showed the formation of the expected AG-HEMA fragment
same,peptide cleavage products by mass spectrometry,[5],yielded GPLALL and AQ as the major cleavage products
same,peptide cleavage products by mass spectrometry,[6],precursor peptide Leu-Leu-Leu-Ala-Ala-Gly (LLLAAG) was converted to fragment Leu-Leu-Leu-Ala (LLLA)
